Source: publication PMC11440508, “Dually Labeled Neurotensin NTS1R Ligands for Probing Radiochemical and Fluorescence-Based Binding Assays” (Journal of Medicinal Chemistry, 2024)

Legend:
NTS1R [1] = biological target: T1, NTS1R (Homo sapiens, UniProt P30989); assay: Radiochemical association and dissociation of [^3H]13 at membranes of CHO-hNTS1R cells; format: binding; conditions: GppNHp
Method: These experiments were performed in 96-well plates using the same procedure as for radiochemical binding experiments with intact suspended cells, but using cell membranes instead of whole cells. Binding of [^3H]13 to the NTS1R was saturable (Figure 6A). […] To note, in addition to GppNHp, saponin (100 μg/mL) was added to the samples to improve ligand permeabilization into vesicles that are likely to occur in membrane preparations. The association curve of [^3H]13 obtained from experiments with cell membranes (Figure 6B) was considerably different compared to the association curve observed for intact suspended cells (cf. Figure 4C). The biphasic character almost disappeared and with a kon value of 0.13 ± 0.05 nM^–1 min^–1 (calculated value ± propagated error) the association was slower compared to the initial phase found for experiments with intact cells (kon = 0.81 nM^–1 min^–1, cf. Table 3). […]
CHO-hNTS1R cells were grown on 175 cm^2 cell culture dishes (ref 83.3903, Sarstedt) to ca. 90% confluency. […] The protein concentration was determined according to the Bradford method[59] in transparent 96-well plates (Greiner Cellstar 655180, Greiner Bio-One, Frickenhausen, Germany) using bovine serum albumin as standard. […]

NTS1R [2] = biological target: T1, NTS1R; assay: Radioligand competition binding with [^3H]UR-MK300 at intact HT-29 colon carcinoma cells; conditions: [^3H]UR-MK300, intact HT-29 cells, 23 °C; read-out: NTS1R pKi ± SEM (converted)
Method: NTS1R binding affinities were determined in a reported competition binding assay[13] using intact hNTS1R-expressing HT-29 colon carcinoma cells and [^3H]UR-MK300 (structure see Figure 1A) as radioligand (competition binding curves shown in Figure S4, Supporting Information).
NTS1R radioligand competition binding experiments with [^3H]UR-MK300 (molar activity: 2.41 TBq/mmol) and the peptides 6–9, 10a, 10b, 13–16, and 18 were performed with intact hNTS1R-expressing human HT-29 colon carcinoma cells at 23 ± 1 °C using a previously reported protocol.[13] […] Cells were seeded one day before the assay, yielding a confluency of at least 90% on the day of the experiment. Total binding data (including total binding in the absence of competitor) were plotted as dpm values against log(concentration competitor) and analyzed by a four-parameter logistic equation (log(inhibitor) vs response–variable slope, GraphPad Prism 5, GraphPad Software, San Diego, CA) to obtain pIC50 values. Individual pIC50 values were converted to pKi values according to the Cheng–Prusoff equation[60] (logarithmic form). To plot average data from individual binding experiments, data were normalized (100% = “top” of the four-parameter logistic fit, 0% = unspecifically bound radioligand).

T1 sequence (P30989 whole entry): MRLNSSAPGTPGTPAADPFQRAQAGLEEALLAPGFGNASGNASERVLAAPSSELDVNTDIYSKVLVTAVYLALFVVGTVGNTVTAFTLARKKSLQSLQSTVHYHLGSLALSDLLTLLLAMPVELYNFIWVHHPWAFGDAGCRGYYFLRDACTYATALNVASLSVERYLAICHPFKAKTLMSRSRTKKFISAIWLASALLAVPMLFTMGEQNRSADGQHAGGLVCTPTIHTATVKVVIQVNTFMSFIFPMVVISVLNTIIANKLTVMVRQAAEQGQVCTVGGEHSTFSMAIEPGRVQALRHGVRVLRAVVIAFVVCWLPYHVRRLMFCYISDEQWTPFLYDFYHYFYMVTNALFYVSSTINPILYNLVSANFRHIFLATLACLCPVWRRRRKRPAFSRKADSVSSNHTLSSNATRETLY

SMILES	koff (NTS1R [1]; 23 °C) [s⁻¹]	kon (NTS1R [1]; calculated value ± propagated error) [M⁻¹ s⁻¹]	Ki (NTS1R [2]) [nM]
CCC(=O)NCCCCNC(=O)NC(=N)NCCC[C@H](NC(=O)[C@@H]1CCCN1C(=O)[C@@H](NC(=O)CCc1cn(CCCNC(=O)c2ccc(-c3c4ccc(=[N+](C)C)cc-4oc4cc(N(C)C)ccc34)c(C(=O)[O-])c2)nn1)C1CCNCC1)C(=O)N[C@@H](CCCNC(=N)N)C(=O)N1CCC[C@H]1C(=O)N[C@@H](Cc1ccc(O)cc1)C(=O)N[C@H](C(=O)N[C@@H](CC(C)C)C(=O)O)[C@@H](C)CC [[^3H]13]	0.00617	2.17e+06	–
CCC(=O)NCCCCNC(=O)NC(=N)NCCC[C@H](NC(=O)[C@@H]1CCCN1C(=O)[C@@H](NC(=O)CCc1cn(CCCNC(=O)CCC#Cc2ccc3c(c2)C(C)(C)C2=C4C=C5C6=[N+](CCC5OC4CCN23)c2ccc(S(=O)(=O)[O-])cc2C6(C)C)nn1)C1CCNCC1)C(=O)N[C@@H](CCCNC(=N)N)C(=O)N1CCC[C@H]1C(=O)N[C@H](C(=O)N[C@H](C(=O)N[C@@H](CC(C)C)C(=O)O)[C@@H](C)CC)C(C)(C)c1ccc(O)cc1 (stereo partly drawn) [Compound 18, N^α-(3-(N-(1-(8-Sulfonato-5,5,27,27-tetramethyl-16-oxa-20-aza-12-azoniaheptacyclo[15.11.0.03,15.04,12.06,11.020,28.021,26]octacosa-1(28),2,4(12),6(11),7,9,21(26),22,24-nonaen-24-yl)-5-oxopentyn-5-yl)-1-aminoprop-3-yl-1H-1,2,3-triazol-4-yl)propanoyl)-2-(piperidin-4-yl)-Gly-Pro-N^ω-[(4-(N-propanoyl)aminobutyl)aminocarbonyl]Arg-Arg-Pro-β,β-dimethyl-L-Tyr-Ile-Leu Tris(hydrotrifluoroacetate)]	–	–	4.07
